Measured values reported in patent US20230063457A1, “DNA-PK INHIBITING COMPOUNDS” (Provincial Health Services Authority, priority 2019, published 2023).
pIC50: −log10 of the molar value.

Assays:
DNA-PK kinase = DNA-PK kinase (Homo sapiens, UniProt P78527); assay: Inhibition of DNA-PK kinase activity (ADP-Glo); format: biochemical; conditions: averaged values over all measurements on all batches; 150 μM ATP, 1 hour at 25° C.
Description: Inhibition of DNA-PK Kinase Activity Assay buffer was 50 mM Hepes pH 7.5 containing 0.1 mg/ml BSA (albumin from bovine serum), 50 μM DTT (dithiothreitol), 20 mM MgCl2 and 10 μg/ml calf thymus DNA (activation buffer). Kinase reaction was carried out in OptiPlate 384 plates (PerkinElmer 6007299). All compounds tested were dissolved in dimethyl sulfoxide (DMSO) and further dilutions were made in assay buffer. Final DMSO concentration was 1% (v/v). Pre-incubation consisted of compound (1% DMSO in control and blank wells) and 24 ng/well DNA-PK kinase to allow the compounds to bind the enzyme (with buffer in the blank wells) for 15 minutes; after this time 150 μM Adenosine-5′-triphosphate (ATP) and 0.2 μg/μl DNA-PK substrate were added to commence the kinase reaction. Incubations were carried out for 1 hour at 25° C. Kinase activity was determined by using ADP-Glo™ reagent from Promega according to the manufacturer's instructions. The light generated was measured using a luminometer (EnVision, PerkinElmer). Signal obtained in the wells containing blank samples was subtracted from all other wells and IC50 values were determined by fitting a sigmoidal curve to % inhibition of control versus Log10 compound concentration.

[1] = biological target: T1, Phospho-DNA-PK in FaDu Cells (Homo sapiens, UniProt P78527); assay: Effect of compounds on phospho-DNA-PK in FaDu cells (MesoScale sandwich immunoassay); format: cell-based; conditions: 1 hour pre-incubation, 1 μg/ml Neocarzinostatin 2 hours, averaged values, read-out: MSD FaDu IC50
T1 construct: host or cells: FaDu
Description: Effect of Compounds on Phospho-DNA-PK in FaDu Cells
All compounds tested were dissolved in DMSO and further dilutions were made in culture medium. Final DMSO concentration was 0.3% (v/v). The human FaDu cells (ATCC) were cultured in MEM medium supplemented with Glutamax and 10% fetal calf serum (PAA). Cells were routinely maintained at densities of 0.2×10^6 cells per ml at 37° C. in a humidified 5% CO2, 95% air atmosphere. Cells were passaged twice a week, splitting back to obtain the low density. Cells were seeded in 96 well plates (Corning 3904) at 1×10^6 cells per ml media in a volume of 50 μl per well. Seeded cells were incubated at 37° C. in a humidified 5% CO2, 95% air atmosphere for 24 hours. Compounds were added (25 μl) to the cells and pre-incubated for 1 hour. 1 μg/ml DNA-damaging agent Neocarzinostatin (NCS) was added (25 μl) to a final volume of 100 μl and incubated for 2 hours at 37° C. in a humidified 5% CO2, 95% air atmosphere. After this period of time plates were removed from the incubator and the 100 μl dilutions were removed from the wells gently, prior to the addition of 75 μl cold RIPA lysis buffer with protease and phosphatase inhibitors to achieve the cells lysis, followed by shaking on a plate shaker at 4° C. for 30 minutes. At the end of this incubation, lysate was assessed for phospho-DNA-PK levels by sandwich immune-assay carried out in anti-mouse antibody coated MesoScale plates. […] Signal obtained in the wells containing blank samples was subtracted from all other wells and IC50 values were determined by fitting a sigmoidal curve to % inhibition of control versus Logo compound concentration.

| SMILES | pIC50 (DNA-PK kinase) | pIC50 [1] |
| --- | --- | --- |
| c1cnc(N2CCC3(C2)CN(c2nc(N4CCOCC4)cc4ncccc24)C3)nc1 [Example 35] | 6.14 |  |
| NC(=O)N1CCC(Oc2nc(N3CCOCC3)cc3ncccc23)CC1 [Parent compound 147] | 6.47 |  |
| c1cnc2cc(N3CCOCC3)nc(N3CCC(CNc4ccncc4)CC3)c2c1 [Example 136] | 6.47 |  |
| c1cnc(N2CCC23CCN(c2nc(N4CCOCC4)cc4ncccc24)C3)nc1 (centres unmarked) [Example 29] | 6.46 |  |
| c1cnc2cc(N3CCOCC3)nc(OC3CCCCC3)c2c1 [Example 9] | 6.33 |  |
| CS(=O)(=O)NCC1CCN(c2nc(N3CCOCC3)cc3ncccc23)CC1 [Parent compound 141] | 6.43 |  |
| c1ccc(NCC2CCN(c3nc(N4CCOCC4)cc4ncccc34)CC2)cc1 [Example 138] | 6.30 |  |
| c1cnc(NC2CCCN(c3nc(N4CCOCC4)cc4ncccc34)C2)nc1 (centres unmarked) [Example 31] | 6.31 |  |
| CC(C)(C)OC(=O)NCCC1CCN(c2nc(N3CCOCC3)cc3ncccc23)CC1 [Example 30] | 6.43 |  |
| c1cnc2cc(N3CCOCC3)nc(N3CCCCC3)c2c1 [Example 32] | 6.28 |  |
| N#Cc1cc(Br)cnc1NCC1CCN(c2nc(N3CCOCC3)cc3ncccc23)CC1 [Example 125] | 6.30 |  |
| c1cnc(N2CC3(CCN(c4nc(N5CCOCC5)cc5ncccc45)C3)C2)nc1 [Example 34] | 6.23 |  |
| CC(=O)Nc1ccnc(NCC2CCN(c3nc(N4CCOCC4)cc4ncccc34)CC2)n1 [Example 126] | 6.17 |  |
| O=C(NC1CCN(c2nc(N3CCOCC3)cc3ncccc23)CC1)c1ncccn1 [Example 27] | 6.56 |  |
| c1cnc(CN2CCC3CN(c4nc(N5CCOCC5)cc5ncccc45)CC32)nc1 (centres unmarked) [Example 42] | 5.64 |  |
| c1cncc(C2CCCCN2c2nc(N3CCOCC3)cc3ncccc23)c1 (centres unmarked) [Example 85] | 5.69 |  |
| CC(C)(C)OC(=O)NCC1CCN(c2nc(N3CCOCC3)cc3ncccc23)CC1 [Example 33] | 6.27 |  |
| COc1cccnc1NCC1CCN(c2nc(N3CCOCC3)cc3ncccc23)CC1 [Example 137] | 6.34 |  |
| O=S(=O)(NCC1CCN(c2nc(N3CCOCC3)cc3ncccc23)CC1)c1ccc(F)cc1 [Example 142] | 6.09 |  |
| C[C@@H]1CN(c2ncn[nH]2)CC[C@@H]1Oc1nc(N2CCOCC2)cc2ncccc12 (single isomer, unassigned) [Parent compound 160] | 6.31 |  |
| c1cnc(N2CC3CN(c4nc(N5CCOCC5)cc5ncccc45)CC3C2)nc1 (centres unmarked) [Example 28] | 6.47 |  |
| c1cnc(NCC2CCCN(c3nc(N4CCOCC4)cc4ncccc34)C2)nc1 (centres unmarked) [Example 36] | 6.02 |  |
| c1cnc2cc(N3CCOCC3)nc(N3CCNCC3)c2c1 [Example 95] | 5.26 |  |
| CN(C)CC1CCN(c2nc(N3CCOCC3)cc3ncccc23)CC1 [Parent compound 145] | 5.46 |  |
| CC(C)(C)OC(=O)N1CCC2CN(c3nc(N4CCOCC4)cc4ncccc34)CC21 (centres unmarked) [Example 37] | 5.89 |  |
| c1cnc(NCCCOc2nc(N3CCOCC3)cc3ncccc23)nc1 [Example 7] | 6.38 |  |
| CC(C)(C)OC(=O)N1CCC(Oc2nc(N3CCOCC3)cc3ncccc23)CC1 [Example 48] | 6.48 |  |
| c1cnc2cc(N3CCOCC3)nc(OC3CCNCC3)c2c1 [Example 89] | 6.44 |  |

Now those with a higher pIC50 (DNA-PK kinase), led by results:

| pIC50 (DNA-PK kinase) | pIC50 [1] | SMILES |
| --- | --- | --- |
| 6.93 | 5.54 | CS(=O)(=O)N1CCN(c2nc(N3CCOCC3)cc3ncccc23)CC1 [Example 144] |
| 7.92 | 6.62 | Cn1ncnc1[C@H]1CC[C@@H](Oc2nc(N3CCOCC3)cc3ncccc23)CC1 [Example 56] |
| 7.35 | 5.43 | N#Cc1cnc(NCC2CCN(c3nc(N4CCOCC4)cc4ncccc34)CC2)nc1N [Example 103] |
| 8.30 | 6.57 | Oc1cnc2cc(N3CCOCC3)nc(O[C@H]3CC[C@@H](c4nccs4)CC3)c2c1 [Example 168] |
| 7.06 | 5.67 | COc1ccnc(NCC2CCN(c3nc(N4CCOCC4)cc4ncccc34)CC2)n1 [Example 111] |
| 7.49 | 5.67 | Cc1cc(C(N)=O)nc(NCC2CCN(c3nc(N4CCOCC4)cc4ncccc34)CC2)n1 [Example 101] |
| 7.06 |  | O=C(O)c1ccnc(NCC2CCN(c3nc(N4CCOCC4)cc4ncccc34)CC2)n1 [Example 110] |
| 7.26 | 5.76 | c1cnc2cc(N3CCOCC3)nc(OC[C@H]3CC[C@@H](c4ncn[nH]4)CC3)c2c1 [Example 73] |
| 7.24 | 5.43 | Oc1cnc2cc(N3CCOCC3)nc(O[C@H]3CC[C@@H](c4cccs4)CC3)c2c1 [Example 164] |
| 6.92 | 5.61 | NC(=O)[C@H]1CC[C@H](COc2nc(N3CCOCC3)cc3ncccc23)CC1 [Example 57] |
| 7.12 | 5.32 | Cc1ccnc(NCC2CCN(c3nc(N4CCOCC4)cc4ncccc34)CC2)n1 [Example 109] |
| 6.83 | 5.33 | c1cnc(NC2CCCN(c3nc(N4CCOCC4)cc4ncccc34)CC2)nc1 (centres unmarked) [Example 18] |
| 7.28 | 4.94 | CN(C)C(=O)c1ccnc(NCC2CCN(c3nc(N4CCOCC4)cc4ncccc34)CC2)n1 [Example 106] |
| 6.61 |  | CN(C)C(=O)N1CC(COc2nc(N3CCOCC3)cc3ncccc23)C1 [Parent compound 149] |
| 6.77 |  | C[S+]([O-])[C@H]1CC[C@@H](Oc2nc(N3CCOCC3)cc3ncccc23)CC1 (mixture of isomers) [Example 83] |
| 6.65 |  | CC1(CNc2ncccn2)CCN(c2nc(N3CCOCC3)cc3ncccc23)C1 (centres unmarked) [Example 25] |

| pIC50 (DNA-PK kinase) | pIC50 [1] | SMILES |
| --- | --- | --- |
| 6.75 |  | Fc1cccnc1NCC1CCN(c2nc(N3CCOCC3)cc3ncccc23)CC1 [Example 135] |
| 6.91 |  | OCc1ccnc(NCC2CCN(c3nc(N4CCOCC4)cc4ncccc34)CC2)n1 [Example 116] |
| 6.62 |  | COc1ccc(COc2nc(N3CCOCC3)cc3ncccc23)cc1 [Example 53] |
| 7.32 |  | C[C@H]1CN(c2cc3ncccc3c(O[C@H]3CC[C@@H](c4nc[nH]n4)CC3)n2)CCO1 [Example 68] |
| 6.63 |  | O=C(Nc1ncccn1)N1CCN(c2nc(N3CCOCC3)cc3ncccc23)CC1 [Parent compound 146] |
| 6.61 |  | COc1nc(NCC2CCN(c3nc(N4CCOCC4)cc4ncccc34)CC2)ncc1Cl [Example 124] |
| 6.63 |  | N#Cc1cnc(NCC2CCN(c3nc(N4CCOCC4)cc4ncccc34)CC2)nc1Cl [Example 123] |
| 6.65 |  | c1cnc2cc(N3CCOCC3)nc(N3CCC(c4ncc[nH]4)CC3)c2c1 [Example 86] |
| 6.90 |  | Nc1ccnc(NCC2CCN(c3nc(N4CCOCC4)cc4ncccc34)CC2)n1 [Parent compound 139] |
| 6.65 |  | O=C(Nc1ncccn1)C1CCN(c2nc(N3CCOCC3)cc3ncccc23)CC1 [Example 26] |
| 6.94 |  | CC1CN(c2ncn[nH]2)CCC1Oc1nc(N2CCOCC2)cc2ncccc12 (centres unmarked) [Parent compound 159] |
| 6.81 |  | Cc1ccnc(NCC2CCN(c3nc(N4CCOCC4)cc4ncccc34)CC2)c1 [Example 134] |
| 6.59 |  | CC(=O)NCC1CCN(c2nc(N3CCOCC3)cc3ncccc23)CC1 [Parent compound 140] |
| 6.68 |  | c1cnc(NCCC2CCCN(c3nc(N4CCOCC4)cc4ncccc34)C2)nc1 (centres unmarked) [Example 23] |
| 6.62 |  | Oc1cnc2c(Cl)c(N3CCOCC3)nc(O[C@H]3CC[C@@H](n4ccnc4)CC3)c2c1 [Parent compound 172] |
